{"source": "patent US20030162777A1", "about": "“Novel N-acylated heterocycles” (Recordati S.A., priority 2001, published 2003)", "note": "pKi: −log10 of the molar value.", "data": [{"biological_target": "T1, human 5HT1A-serotonergic receptor (Homo sapiens, UniProt P08908)", "T1 construct": "expressed in transfected cells; host or cells: HeLa (human cell line), stably transfected; cell membranes used", "T1 sequence (P08908 1-422)": "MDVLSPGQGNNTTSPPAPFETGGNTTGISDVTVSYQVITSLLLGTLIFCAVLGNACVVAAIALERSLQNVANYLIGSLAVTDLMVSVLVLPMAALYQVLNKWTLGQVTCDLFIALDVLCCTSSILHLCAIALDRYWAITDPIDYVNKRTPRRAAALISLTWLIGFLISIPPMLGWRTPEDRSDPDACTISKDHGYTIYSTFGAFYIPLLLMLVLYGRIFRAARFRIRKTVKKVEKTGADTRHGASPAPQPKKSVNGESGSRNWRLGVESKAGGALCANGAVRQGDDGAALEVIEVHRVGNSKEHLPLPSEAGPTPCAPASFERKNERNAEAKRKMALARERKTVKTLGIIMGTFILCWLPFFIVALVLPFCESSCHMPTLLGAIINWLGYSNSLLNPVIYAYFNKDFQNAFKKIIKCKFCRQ", "test": "Radioligand binding to recombinant 5-HT1A receptors", "conditions": "[3H]8-OH-DPAT 1 nM, membranes of HeLa cells with human 5-HT1A receptor; Ki from IC50 by Cheng & Prusoff; read-out: Binding affinity for 5HT1A receptors, Ki", "procedure": "Genomic clone G-21 coding for the human 5HT1A-serotonergic receptor was stably transfected in a human cell line (HeLa). HeLa cells were grown as monolayers in Dulbecco's modified Eagle medium (DMEM), containing 10% foetal bovine serum, gentamicin ([…]) and 5% carbon dioxide, at 37° C. The cells were detached from the growth flask at 95% confluence by a cell scraper and were lysed in cold 5 mM Tris and 5 mM EDTA buffer (pH 7.4). The homogenates were centrifuged at 40000×g×20 minutes and the pellets were resuspended in a small volume of cold 5 mM Tris and 5 mM EDTA buffer (pH 7.4) and immediately frozen and stored at −70° C. until use. On the day of experiment, the cell membranes were resuspended in incubation buffer: 50 mM Tris HCl (pH 7.4), 2.5 mM MgCl2, […] (Fargin et al., Nature 335, 358-360, 1988). The membranes were incubated in a final volume of 1 ml for 30 minutes at 30° C. with 1 nM [^3H]8-OH-DPAT, in the absence or presence of the test compounds. Non-specific binding was determined in the presence of 10 μM 5-HT. Incubation was stopped by addition of cold Tris-HC 1 buffer and rapid filtration through a 0.2%-polyethyleneimine-pretreated Whatman-GF/B or Schleicher-&-Schuell-GF52 filter.\nThe affinity of the tested compounds was evaluated as inhibition of specific binding of the radioligand to 5-HT1A receptors (IC50) by using the non-linear curve-fitting program Allfit (De Lean et al., Am. J. Physiol. 235, E97-E102 (1978). The IC50 value was converted to an affinity constant (Ki) by the equation of Cheng & Prusoff (Cheng Y. C., Prusoff W. H., Biochem. Pharmacol. 22, 3099-3108 (1973)).", "values": [{"smiles": "O=C(CCCc1ccccc1)N1c2ccccc2CCC1CN1CCN(c2cccc3[nH]ccc23)CC1", "note": "(centres unmarked) [Example 68A66, 1-(4-Indolyl)-1-[1-(4-phenylbutanoyl)-1,2,3,4-tetrahydroquinoline-2-ylmethyl]piperazine]", "pKi": 7.71}, {"smiles": "O=C(c1ccccc1)N1c2ccccc2CCC1CN1CCN(c2cccc3[nH]ccc23)CC1", "note": "(centres unmarked) [Example 24A4, 1-(1-Benzoyl-1,2,3,4-tetrahydroquinoline-2-ylmethyl)-4-(4-indolyl)piperazine]", "pKi": 8.03}, {"smiles": "O=C(c1ccc(Cl)cc1)N1c2ccccc2CCC1CN1CCN(c2cccc3[nH]ccc23)CC1", "note": "(centres unmarked) [Example 68A5, 1-[1-(4-Chlorobenzoyl)-1,2,3,4-tetrahydroquinoline-2-ylmethyl]-4-(4-indolyl)piperazine]", "pKi": 8.40}, {"smiles": "COc1cc(Cl)ccc1N1CCN(CC2CCc3ccccc3N2C(=O)C2CCCCC2)CC1", "note": "(centres unmarked) [Example 62A2, 1-(4-Chloro-2-methoxyphenyl)-4-(1-cyclohexanecarbonyl-1,2,3,4-tetrahydroquinoline-2-ylmethyl)piperazine]", "pKi": 7.81}, {"smiles": "CCOc1ccc(C(=O)N2c3ccccc3CCC2CN2CCN(c3cccc4[nH]ccc34)CC2)cc1", "note": "(centres unmarked) [Example 68A69, 1-[1-(4-Ethoxybenzoyl)-1,2,3,4-tetrahydroquinoline-2-ylmethyl]-4-(4-indolyl)piperazine]", "pKi": 8.38}, {"smiles": "O=C(C1CCCCC1)N1c2ccccc2CCC1CN1CCC(c2ccccc2)CC1", "note": "(centres unmarked) [Example 72A3, 1-(1-Cyclohexanecarbonyl-1,2,3,4-tetrahydroquinolin-2-ylmethyl)-4-phenylpiperidine]", "pKi": 7.33}, {"smiles": "N#Cc1ccc(C(=O)N2c3ccccc3CCC2CN2CCN(c3cccc4c3OCCO4)CC2)cc1", "note": "(centres unmarked) [Example 76A5, 1-[1-(4-Cyanobenzoyl)-1,2,3,4-tetrahydroquinolin-2-ylmethyl]-4-(2,3-dihydrobenzo[1,4]dioxin-5-yl)piperazine]", "pKi": 7.91}, {"smiles": "Cc1ccccc1NC(=O)N1c2ccccc2CCC1CN1CCN(c2cccc3[nH]ccc23)CC1", "note": "(centres unmarked) [Example 69A, 1-(4-Indolyl)-4-[1-(2-methylphenylaminocarbonyl)-1,2,3,4-tetrahydroquinoline-2-ylmethyl]piperazine]", "pKi": 8.14}, {"smiles": "O=C(C1CCCCC1)N1c2ccccc2CCC1CN1CCN(c2ccc(F)cc2[N+](=O)[O-])CC1", "note": "(centres unmarked) [Example 72A7, 1-(1-Cyclohexanecarbonyl-1,2,3,4-tetrahydroquinolin-2-ylmethyl)-4-(4-fluoro-2-nitrophenyl)piperazine]", "pKi": 8.34}, {"smiles": "O=C(c1cccs1)N1c2ccccc2CCC1CN1CCN(c2cccc3[nH]ccc23)CC1", "note": "(centres unmarked) [Example 68A19, 1-(4-Indolyl)-4-[1-(2-thienylcarbonyl)-1,2,3,4-tetrahydroquinoline-2-ylmethyl]piperazine]", "pKi": 8.39}, {"smiles": "COc1cc(F)ccc1N1CCN(CC2CCc3cc(N)ccc3N2C(=O)C2CCCCC2)CC1", "note": "(centres unmarked) [Example 85, 1-(6-Amino-1-cyclohexanecarbonyl-1,2,3,4-tetrahydroquinoline-2-ylmethyl)-4-(4-fluoro-2-methoxyphenyl)piperazine]", "pKi": 7.39}, {"smiles": "Cc1oc(S(=O)(=O)N2CCOCC2)cc1C(=O)N1c2ccccc2CCC1CN1CCN(c2cccc3[nH]ccc23)CC1", "note": "(centres unmarked) [Example 68A56, 1-(4-Indolyl)-4-[1-(2-methyl-5-morpholin-4-ylsulfonylfuran-3-carbonyl)-1,2,3,4-tetrahydroquinoline-2-ylmethyl]piperazine]", "pKi": 7.57}, {"smiles": "COc1ccc(C#N)cc1N1CCN(CC2CCc3ccccc3N2C(=O)C2CCCCC2)CC1", "note": "(centres unmarked) [Example 35A24, 1-(5-Cyano-2-methoxyphenyl)-4-(1-cyclohexanecarbonyl-1,2,3,4-tetrahydroquinoline-2-ylmethyl)piperazine]", "pKi": 7.94}, {"smiles": "O=C(C1CCCCC1)N1c2ccccc2CCC1CN1CCN(c2ccc(F)cc2F)CC1", "note": "(centres unmarked) [Example 72A18, 1-(1-Cyclohexanecarbonyl-1,2,3,4-tetrahydroquinolin-2-ylmethyl)-4-(2,4-difluorophenyl)piperazine]", "pKi": 7.96}, {"smiles": "O=C(C1CCCCC1)N1c2ccccc2CCC1CN1CCN(c2cc(Cl)ccc2Cl)CC1", "note": "(centres unmarked) [Example 35A19, 1-(1-Cyclohexanecarbonyl-1,2,3,4-tetrahydroquinoline-2-ylmethyl)-4-(2,5-dichlorophenyl)piperazine]", "pKi": 8.28}, {"smiles": "O=C(C1CCCCC1)N1c2ccccc2CCC1CN1CCN(Cc2ccccc2Br)CC1", "note": "(centres unmarked) [Example 35A29, 1-(2-Bromobenzyl)-4-(1-cyclohexanecarbonyl-1,2,3,4-tetrahydroquinoline-2-ylmethyl)piperazine]", "pKi": 7.51}, {"smiles": "O=C(C1CCC1)N1c2ccccc2CCC1CN1CCN(c2nccc3ccccc23)CC1", "note": "(centres unmarked) [Example 75A10, 1-(1-Cyclobutanecarbonyl-1,2,3,4-tetrahydroquinolin-2-ylmethyl)-4-(1-isoquinolinyl)piperazine]", "pKi": 7.58}, {"smiles": "O=C(C1CCCCC1)N1c2ccccc2CCC1CN1CCN(c2cc(C(F)(F)F)nc3ccccc23)CC1", "note": "(centres unmarked) [Example 72A89, 1-(1-Cyclohexanecarbonyl-1,2,3,4-tetrahydroquinolin-2-ylmethyl)-4-(2-trifluoromethylquinolin-4-yl)piperazine]", "pKi": 7.46}, {"smiles": "N#CNCCC(=O)N1c2ccccc2CCC1CN1CCN(c2cccc3[nH]ccc23)CC1", "note": "(centres unmarked) [Example 54, 1-[1-(3-Cyanominopropionyl)-1,2,3,4-tetrahydroquinoline-2-ylmethyl]-4-(4-indolyl)piperazine]", "pKi": 7.29}, {"smiles": "COc1cc(C)ccc1N1CCN(CC2CCc3ccccc3N2C(=O)C2CCCCC2)CC1", "note": "(centres unmarked) [Example 86A, 1-(1-Cyclohexanecarbonyl-1,2,3,4-tetrahydroquinoline-2-ylmethyl)-4-(2-methoxy-4-methylphenyl)piperazine]", "pKi": 7.74}, {"smiles": "CC(C)CC(=O)N1c2ccccc2CCC1CN1CCN(c2nccc3ccccc23)CC1", "note": "(centres unmarked) [Example 75A, 1-(1-Isoquinolinyl)-4-[1-(3-methylbutanoyl)-1,2,3,4-tetrahydroquinolin-2-ylmethyl]piperazine]", "pKi": 8.49}, {"smiles": "O=C(C1CCCCC1)N1c2ccccc2CCC1CN1CCN(c2cccc3cc[nH]c23)CC1", "note": "(centres unmarked) [Example 35A26, 1-(1-Cyclohexanecarbonyl-1,2,3,4-tetrahydroquinoline-2-ylmethyl)-4-(7-indolyl)piperazine]", "pKi": 8.51}, {"smiles": "O=C(CC1CC1)N1c2ccccc2CCC1CN1CCN(c2nccc3ccccc23)CC1", "note": "(centres unmarked) [Example 75A2, 1-[1-(2-Cyclopropylacetyl)-1,2,3,4-tetrahydroquinolin-2-ylmethyl]-4-(1-isoquinolinyl)piperazine]", "pKi": 8.00}, {"smiles": "Cc1oc(S(=O)(=O)N2CCCC2)cc1C(=O)N1c2ccccc2CCC1CN1CCN(c2cccc3[nH]ccc23)CC1", "note": "(centres unmarked) [Example 68A59, 1-(4-Indolyl)-4-[1-(2-methyl-5-pyrrolidin-1-ylsulfonylfuran-3-carbonyl)-1,2,3,4-tetrahydroquinoline-2-ylmethyl]piperazine]", "pKi": 7.33}, {"smiles": "O=S(=O)(Cc1ccccc1)N1c2ccccc2CCC1CN1CCN(c2cccc3[nH]ccc23)CC1", "note": "(centres unmarked) [Example 70A6, 1-(4-Indolyl)-4-(1-phenylmethylsulphonyl-1,2,3,4-tetrahydroquinoline-2-ylmethyl)piperazine]", "pKi": 8.33}, {"smiles": "CN(CC(=O)N1c2ccccc2CCC1CN1CCN(c2cccc3[nH]ccc23)CC1)C(=O)c1ccccc1", "note": "(centres unmarked) [Example 68A46, 1-[1-[2-(N-Benzoyl-N-methylamino)acetyl]-1,2,3,4-tetrahydroquinoline-2-ylmethyl]-4-(4-indolyl)piperazine]", "pKi": 7.46}]}]}
